# Test system: lysozyme (LYZ) in intestinal organoids
# Assay: Western blotting of lysozyme in 3D-cultured intestinal organoids
# Assay type: cell-based, mouse
# Conditions: ENR+CV, ENR+CD or ENR, 6 days
# Text: Western blotting. ISC-enriched organoids cultured in 3D Matrigel with ENRCV media were passaged to 24-well plate in 3D Matrigel with ENRCV. At day zero, media were replaced to ENR or ENRCD with or without indicated compounds, and media were replaced every other day. At day six, cells were harvested from Matrigel by mechanical disruption and suspended in basal media. Cell pellets were lysed with Pierce® IP lysis buffer (ThermoFisher, 87787) containing Halt™ Protease Inhibitor Cocktail, EDTA-Free (ThermoFisher, 87785) after 3-minute centrifuge at 300×g at 4° C. Cell extracts were resolved by NuPAGE® SDS-PAGE Gel system (ThermoFisher) and electroblotted onto polyvinylidene difluoride membranes using Criterion™ Blotter (Biorad). The membranes were blocked with 2% Blotting-Grade Blocker (Biorad, 1706404) in TBS-T (50 mM Tris-HCl, 150 mM NaCl, and 0.1% Tween 20, pH 8.0) and then probed with appropriate antibodies. Detection was performed using ECL Select™ Western Blotting Detection Reagent (Amersham, 45-000-999) and ImageQuant LAS4000 (GE Healthcare).
# Western blotting. Organoid-containing gel was homogenized in basal medium and centrifuged at 300 rcf for 3 min. Organoid pellet was lysed with ice-cold Pierce IP Lysis Buffer (Thermo Fisher Scientific, #87787) containing Halt Protease Inhibitor Cocktail, EDTA-Free (Thermo Fisher Scientific, #87785) and incubated on ice for 20 min. The lysate was centrifuged at 17,000 rcf for 10 min, and the supernatant was combined with NuPAGE LDS Sample Buffer (Thermo Fisher Scientific, NP0007). Protein concentration was determined by Pierce 660 nm Protein Assay (Thermo Fisher Scientific, #22660) and normalized to the lowest concentration among each sample set. […] Chemiluminescent signals were detected by LAS4000 (GE Healthcare) using Amersham ECL Select Western Blotting Detection Reagent (GE Healthcare, #45-000-999), and total protein signals were obtained by Odyssey Imaging System (LI-COR Biosciences) using REVERT Total Protein Stain Kit (LI-COR Biosciences, #926-11010).
smiles,measurement,value
O=C(/C=C\n1cnc(-c2cc(C(F)(F)F)cc(C(F)(F)F)c2)n1)NNc1cnccn1 [KPT-330],LYZ abundance per-mass protein (Western blot),appreciably increase LYZ abundance

# Source: patent publication US20220323406A1, “METHODS AND COMPOSITIONS FOR DIFFERENTIATING STEM CELLS” (Massachusetts Institute of Technology, priority 2019, published 2022)
